As a reminder, the solubility is the concentration that dissolves in the medium under given conditions. A high value points to much dissolved substance.

The source of these data is patent publication US10227298B2, “Solid forms of a pharmaceutically active compound” (Hoffmann-La Roche Inc., priority 2014, dated 2019).

The nature of the data set: aqueous solubility of the crystalline forms. Type of data set: physicochemical. The note with it: pH 1.5, aqueous buffer, in water at physiological pHs (pH1.5-8.0).

For the compound `COc1cc(C(=O)O)ccc1NC(=O)[C@@H]1N[C@@H](CC(C)(C)C)[C@](C#N)(c2ccc(Cl)cc2F)[C@H]1c1cccc(Cl)c1F` [Compound A, 4-{[(2R,3S,4R,5S)-4-(4-Chloro-2-fluoro-phenyl)-3-(3-chloro-2-fluoro-phenyl)-4-cyano-5-(2,2-dimethyl-propyl)-pyrrolidine-2-carbonyl]-amino}-3-methoxy-benzoic acid], the solubility is < 0.05 µg/mL.
